A word on the Papp: it is the rate of passage across a membrane or cell layer, normalised by area and donor concentration. Low values mean poor permeation, high ones ready permeation.

We go through 18 compounds from paper PMC9490236, “Accurate de novo design of membrane-traversing macrocycles” (Cell, 2022).

Where a SMILES comes first, the peptide text is derived from it. [ ]: non-standard residue; d: D form. NMeF = CN[C@@H](Cc1ccccc1)C(=O)O; NMeL = CN[C@@H](CC(C)C)C(=O)O; dNMeL = CN[C@H](CC(C)C)C(=O)O; dNMeV = CN[C@@H](C(=O)O)C(C)C; NMeM = CN[C@@H](CCSC)C(=O)O; NMeV = CN[C@H](C(=O)O)C(C)C; NMeA = CN[C@@H](C)C(=O)O; dNMeA = CN[C@H](C)C(=O)O

The conditions of data set [1]: PAMPA.
A short description of data set [2]: in vitro. As to conditions: PAMPA, PAMPA_Papp_Avg. A general note: PAMPA measures passive passage across an artificial lipid membrane.

Turning to `CC(C)C[C@@H]1NC(=O)[C@@H]2CCCN2C(=O)[C@H]2CCCN2C(=O)[C@@H](C)N(C)C(=O)[C@@H](CC(C)C)N(C)C(=O)[C@H](C(C)C)NC(=O)[C@@H](C)N(C)C(=O)[C@H]2CCCN2C(=O)[C@@H]2CCCN2C1=O` [Design D9.22, DPRO *DALA VAL *DLEU *DALA DPRO PRO LEU PRO] (cyclo(LP[dP][dNMeA]V[dNMeL][dNMeA][dP]P)), in data set [1], the PAMPA_R1 was 1.87E-07 and the PAMPA_R3 came to 1.82E-07. The compound further came in with an apparent permeability (Papp) in data set [2] of 0.189 ×10⁻⁶ cm/s.

Consider `CC[C@@H](C)[C@H]1NC(=O)[C@@H](CC(C)C)NC(=O)[C@@H]2CCCN2C(=O)[C@H]2CCCN2C(=O)[C@@H](C(C)C)NC(=O)[C@H](C)NC(=O)[C@@H]2CCCN2C(=O)[C@@H]([C@H](C)CC)NC(=O)[C@@H](C)N(C)C1=O` [Design D9.23, DILE *DALA DILE PRO ALA DVAL DPRO PRO DLEU] (cyclo([dL][dI][dNMeA][dI]PA[dV][dP]P)), for which, in data set [1], the PAMPA_R1 is given as 1.37E-07 and the PAMPA_R3 was 1.50E-07. The compound also had an apparent permeability (Papp) in data set [2] of 0.141 ×10⁻⁶ cm/s.

Take `CSCC[C@H]1C(=O)N(C)[C@H](C)C(=O)N[C@H](CC(C)C)C(=O)N2CCC[C@@H]2C(=O)N2CCC[C@H]2C(=O)N[C@@H](CC(C)C)C(=O)N2CCC[C@H]2C(=O)N2CCC[C@@H]2C(=O)N[C@H](C(C)C)C(=O)N1C` [Design D9.24, DPRO DVAL *MET *DALA DLEU DPRO PRO LEU PRO] (cyclo(LP[dP][dV][NMeM][dNMeA][dL][dP]P)): in data set [1], the PAMPA_R1 came to 7.85E-08 and the PAMPA_R3 is reported as 8.51E-08. The compound further gave a Papp in data set [2] of 0.0869 ×10⁻⁶ cm/s.

Turning to `CC(C)C[C@@H]1C(=O)N[C@H](Cc2ccccc2)C(=O)N2CCC[C@@H]2C(=O)N2CCC[C@@H]2C(=O)N2CCC[C@H]2C(=O)N[C@H](C(C)C)C(=O)N(C)[C@@H](C)C(=O)N(C)[C@@H](C)C(=O)N(C)[C@H](CC(C)C)C(=O)N1C` [Design D9.25, DVAL *ALA *ALA *DLEU *DLEU DPHE DPRO DPRO PRO] (cyclo([dV][NMeA][NMeA][dNMeL][dNMeL][dF][dP][dP]P)), in data set [1], the PAMPA_R1 is on record as 2.32E-06 and the PAMPA_R3 turned out to be 1.52E-06. The Papp in data set [2] was determined as 2.19 ×10⁻⁶ cm/s.

As for `CC[C@@H](C)[C@H]1NC(=O)[C@H]2CCCN2C(=O)[C@@H](C)NC(=O)[C@@H](CC(C)C)N(C)C(=O)[C@H]([C@@H](C)CC)NC(=O)[C@@H](C(C)C)NC(=O)[C@@H](CC(C)C)N(C)C(=O)[C@@H]2CCCN2C(=O)[C@@H]2CCCN2C1=O` [Design D9.26, DPRO DILE PRO PRO *DLEU DVAL ILE *DLEU DALA] (cyclo(I[dNMeL][dA][dP][dI]PP[dNMeL][dV])), in data set [1], the PAMPA_R1 stood at 2.58E-06 and the PAMPA_R3 is 2.23E-06. The compound also had an apparent permeability coefficient (Papp) in data set [2] of 2.32 ×10⁻⁶ cm/s.

On to `CC(C)C[C@@H]1NC(=O)[C@@H](C)N(C)C(=O)[C@@H](CC(C)C)N(C)C(=O)[C@@H]2CCCN2C(=O)[C@H]2CCCN2C(=O)[C@@H](C)NC(=O)[C@@H]2CCCN2C(=O)[C@H]2CCCN2C(=O)[C@@H](CC(C)C)NC1=O` [Design D9.27, DLEU DPRO PRO DALA DPRO PRO *DLEU *DALA LEU] (cyclo([dA][dP]P[dNMeL][dNMeA]L[dL][dP]P)), for which, in data set [1], the PAMPA_R1 worked out at 3.26E-08 and the PAMPA_R3 was 3.49E-08. The compound also had an apparent permeability coefficient (Papp) in data set [2] of 0.0334 ×10⁻⁶ cm/s.

With `CC(C)C[C@@H]1C(=O)N[C@H](C)C(=O)N[C@@H](C(C)C)C(=O)N2CCC[C@@H]2C(=O)N[C@H](C(C)C)C(=O)N2CCC[C@@H]2C(=O)N2CCC[C@H]2C(=O)N[C@H](C)C(=O)N(C)[C@H](CC(C)C)C(=O)N1C` [Design D9.29, DVAL DPRO PRO DALA *DLEU *DLEU DALA VAL DPRO] (cyclo([dA][dNMeL][dNMeL][dA]V[dP][dV][dP]P)), in data set [1], the PAMPA_R1 worked out at 1.96E-06 and the PAMPA_R3 is on record as 1.19E-06. Besides, the Papp in data set [2] is 1.51 ×10⁻⁶ cm/s.

As to `CC(C)C[C@@H]1NC(=O)[C@H](Cc2ccccc2)N(C)C(=O)[C@H]2CCCN2C(=O)[C@@H](CC(C)C)NC(=O)[C@@H](CC(C)C)NC(=O)[C@H](C)NC(=O)[C@H]2CCCN2C(=O)[C@@H]2CCCN2C(=O)[C@@H](C(C)C)NC1=O` [Design D9.32, DPRO ALA DLEU DLEU DPRO *PHE LEU DVAL PRO] (cyclo(A[dL][dL][dP][NMeF]L[dV]P[dP])), in data set [1], the PAMPA_R1 was 2.62E-07 and the PAMPA_R3 worked out at 2.67E-07. Moreover, in data set [2], the Papp was 0.24 ×10⁻⁶ cm/s.

`CC[C@H](C)[C@@H]1NC(=O)CNC(=O)[C@@H]2CCCN2C(=O)[C@H]2CCCN2C(=O)[C@H]([C@@H](C)CC)NC(=O)[C@@H](C)N(C)C(=O)[C@@H]2CCCN2C(=O)[C@H](C(C)C)NC(=O)[C@@H](CC(C)C)NC1=O` [Design D9.33, DPRO PRO GLY ILE DLEU VAL PRO *DALA ILE] (cyclo(GI[dL]VP[dNMeA]I[dP]P)): in data set [1], the PAMPA_R1 is 2.73E-07 and the PAMPA_R3 is reported as 4.74E-07. In data set [2], this compound had a Papp of 0.317 ×10⁻⁶ cm/s.

In data set [1], `CC[C@H](C)[C@@H]1NC(=O)[C@H]2CCCN2C(=O)[C@H](CC(C)C)N(C)C(=O)[C@H](CC(C)C)NC(=O)[C@H](C(C)C)NC(=O)[C@@H]2CCCN2C(=O)[C@H](CC(C)C)N(C)C(=O)[C@H](C(C)C)NC(=O)[C@@H](C(C)C)NC1=O` [Design D9.39, DVAL VAL *LEU PRO VAL LEU *LEU DPRO ILE] (cyclo(I[dV]V[NMeL]PVL[NMeL][dP])) displayed a PAMPA_R1 of 5.51E-07 and a PAMPA_R3 of 2.78E-07. In data set [2], this compound displayed a Papp of 0.466 ×10⁻⁶ cm/s.

In data set [1], `CC[C@@H](C)[C@H]1NC(=O)[C@H](Cc2ccccc2)NC(=O)[C@@H](C)NC(=O)[C@@H](CC(C)C)N(C)C(=O)[C@@H]2CCCN2C(=O)[C@H](C)NC(=O)[C@H]2CCCN2C(=O)[C@@H]2CCCN2C(=O)[C@@H](Cc2ccccc2)NC1=O` [Design D9.41, PRO DPRO ALA PRO *DLEU DALA PHE DILE DPHE] (cyclo(AP[dNMeL][dA]F[dI][dF]P[dP])) gave a PAMPA_R1 of 3.56E-06 and a PAMPA_R3 of 3.41E-06. Moreover, the apparent permeability coefficient (Papp) in data set [2] is 3.48 ×10⁻⁶ cm/s.

For `CC[C@H](C)[C@@H]1NC(=O)[C@H]2CCCN2C(=O)[C@@H]2CCCN2C(=O)[C@H](C(C)C)NC(=O)[C@@H](C(C)C)NC(=O)[C@H](Cc2ccccc2)N(C)C(=O)[C@H]2CCCN2C(=O)[C@@H](CC(C)C)N(C)C(=O)[C@@H](CC(C)C)NC1=O` [Design D9.42, DPRO ILE DLEU *DLEU DPRO *PHE DVAL VAL PRO] (cyclo(I[dL][dNMeL][dP][NMeF][dV]VP[dP])), in data set [1], the PAMPA_R1 amounted to 1.18E-06 and the PAMPA_R3 was 1.07E-06. The compound further showed an apparent permeability (Papp) in data set [2] of 1.12 ×10⁻⁶ cm/s.

In data set [1], `CC(C)C[C@@H]1C(=O)N2CCC[C@@H]2C(=O)N(C)[C@@H](C(C)C)C(=O)N[C@@H](C(C)C)C(=O)N2CCC[C@H]2C(=O)N2CCC[C@@H]2C(=O)N[C@@H](C)C(=O)N[C@H](C(C)C)C(=O)N(C)[C@@H](CC(C)C)C(=O)N[C@@H](C)C(=O)N1C` [Design D10.6, PRO DPRO ALA DVAL *LEU ALA *DLEU DPRO *VAL VAL] (cyclo(A[dNMeL][dP][NMeV]VP[dP]A[dV][NMeL])) displayed a PAMPA_R1 of 1.62E-06 and a PAMPA_R3 of 7.67E-07. Further, the Papp in data set [2] turned out to be 1.22 ×10⁻⁶ cm/s.

In data set [1], `CC(C)C[C@@H]1NC(=O)[C@@H](CC(C)C)NC(=O)[C@@H]2CCCN2C(=O)[C@@H](CC(C)C)NC(=O)[C@H](C)N(C)C(=O)[C@H](C)NC(=O)[C@H](CC(C)C)N(C)C(=O)[C@@H]2CCCN2C(=O)[C@H](CC(C)C)NC(=O)[C@H](CC(C)C)N(C)C1=O` [Design D10.16, DLEU LEU *LEU LEU PRO *LEU ALA *ALA DLEU PRO] (cyclo(A[NMeA][dL]P[dL]L[NMeL]LP[NMeL])) returned a PAMPA_R1 of 2.30E-06 and a PAMPA_R3 of 2.32E-06. For the same compound, the Papp in data set [2] is 2.27 ×10⁻⁶ cm/s.

In data set [1], `CC(C)C[C@@H]1C(=O)N[C@H](C)C(=O)N2CCC[C@H]2C(=O)N(C)[C@H](CC(C)C)C(=O)N[C@@H](C)C(=O)N(C)[C@@H](CC(C)C)C(=O)N(C)[C@H](C(C)C)C(=O)N[C@H](Cc2ccccc2)C(=O)N2CCC[C@@H]2C(=O)N2CCC[C@H]2C(=O)N1C` [Design D10.18, DPRO PRO *DLEU DALA PRO *DLEU ALA *LEU *DVAL DPHE] (cyclo([dNMeL][dA]P[dNMeL]A[NMeL][dNMeV][dF][dP]P)) displayed a PAMPA_R1 of 9.23E-08 and a PAMPA_R3 of 1.49E-07. The Papp in data set [2] is 0.0948 ×10⁻⁶ cm/s.

In data set [1], `CC(C)C[C@@H]1NC(=O)[C@@H](Cc2ccccc2)NC(=O)[C@@H](CC(C)C)N(C)C(=O)[C@@H]2CCCN2C(=O)[C@H](C)NC(=O)[C@@H](CC(C)C)N(C)C(=O)[C@@H]2CCCN2C(=O)[C@H](CC(C)C)N(C)C(=O)[C@H](CC(C)C)N(C)C(=O)[C@H](C(C)C)NC1=O` [Design D10.20, PRO *DLEU ALA PRO *DLEU DPHE LEU VAL *LEU *LEU] (cyclo(AP[dNMeL][dF]LV[NMeL][NMeL]P[dNMeL])) gave a PAMPA_R1 of 1.95E-06 and a PAMPA_R3 of 3.37E-06. Further, in data set [2], the Papp was determined as 2.59 ×10⁻⁶ cm/s.

On to `CC[C@@H](C)[C@H]1NC(=O)[C@H](C(C)C)NC(=O)[C@H]2CCCN2C(=O)[C@@H]2CCCN2C(=O)[C@H](CC(C)C)N(C)C(=O)[C@H](C)N(C)C(=O)[C@@H](CC(C)C)N(C)C(=O)[C@H](C)NC(=O)[C@@H](Cc2ccccc2)NC(=O)[C@@H]2CCCN2C1=O` [Design D10.25, DPHE ALA *DLEU *ALA *LEU PRO DPRO VAL DILE PRO] (cyclo(A[dNMeL][NMeA][NMeL]P[dP]V[dI]P[dF])), for which, in data set [1], the PAMPA_R1 worked out at 3.97E-07 and the PAMPA_R3 stood at 4.39E-07. In addition, the apparent permeability coefficient (Papp) in data set [2] is 0.452 ×10⁻⁶ cm/s.

As for `CC[C@@H](C)[C@H]1NC(=O)[C@@H]2CCCN2C(=O)[C@@H](Cc2ccccc2)NC(=O)[C@H](CC(C)C)N(C)C(=O)[C@H](C)NC(=O)[C@H]2CCCN2C(=O)[C@@H]2CCCN2C(=O)[C@H](CC(C)C)NC(=O)[C@H](CC(C)C)N(C)C(=O)[C@H](C)N(C)C1=O` [Design D10.26, PRO DILE *ALA *LEU LEU PRO DPRO ALA *LEU DPHE] (cyclo(A[NMeL][dF]P[dI][NMeA][NMeL]LP[dP])), in data set [1], the PAMPA_R1 turned out to be 1.40E-06 and the PAMPA_R3 is recorded as 1.69E-06. This compound showed an apparent permeability coefficient (Papp) in data set [2] of 1.51 ×10⁻⁶ cm/s.
